Laboratory results from patent US5300298A, “Methods of treating obesity with purine related compounds” (The Pennsylvania Research Corporation, priority 1992, dated 1994).

Tests used:
[1] = Serum BW1433 level after chronic administration (fluorometric after HPLC separation); assay type: in vivo, Zucker rats; settings: for concentration at 168 h: rat, serum, day 7
Method: Next, I studied the effect of chronic treatment with BW1433. For this purpose I employed 2 ml Alzet mini osmotic pumps. Each pump was loaded with 2 ml of a solution containing BW1433 or with vehicle (aqueous solution adjusted to pH II). The amount of BW1433 was adjusted so that the pump delivered either zero, 0.2 mg or 0.4 mg/Kg/hour to each animal. On the first day the animals had the pumps implanted and were given a priming (2 mg/Kg or 4 mg/Kg) dose of the antagonist. Blood was taken prior to surgery and six hours after the animals were removed from their food supply. On each subsequent day animals had free access to food and water overnight, then their food removed for six hours, and a blood sample taken. In addition to taking blood samples for glycerol analysis, each animal was weighed every day for seven days. After seven days the animals were fasted overnight and a glucose tolerance test given The animals were then sacrificed and 1 ml blood sample taken for serum insulin and serum BW1433 determination drug levels. Insulin levels were measured with RIA kit (Diagnostic Products) and BW1433 levels were measured fluorometrically after HPLC separation at Burroughs Wellcome, Research Triangle Park, North Carolina. […] Nonetheless, when glucose tolerance curves were administered on day 7, drug-related differences could still be seen in all animals studied. […] This is illustrated more clearly in FIG. 4 where the area under the glucose tolerance curve is shown as a bar for each of the 6 groups of animals. […] FIG. 5 is a chart of the change in weight of treated and untreated lean and obese animals. […] The effect on weight change in each case was maximal at day 3, the day when the glycerol values peaked. Based on these remarkable results, the compounds of Formula I can be administered to obese warm-blooded animals as anti-obesity agents, or administered to farm animals to advantageously increase the ratio of muscle mass to fat therein. […] The obese animals apparently have lower extracellular fluid volume per Kg body weight.

[2] = Body weights during chronic administration of BW1433; assay type: in vivo, Zucker rats
Method: FIG. 5: Body weights of lean and obese Zucker rats during chronic administration of BW1433. The data are presented as a % of day 0 weight. Day 0 represents when the Alzet mini-pumps were implanted. The conditions are the same as those described in the legend to FIG. 2.
(§1) Next, I studied the effect of chronic treatment with BW1433. For this purpose I employed 2 ml Alzet mini osmotic pumps. Each pump was loaded with 2 ml of a solution containing BW1433 or with vehicle (aqueous solution adjusted to pH II). The amount of BW1433 was adjusted so that the pump delivered either zero, 0.2 mg or 0.4 mg/Kg/hour to each animal. On the first day the animals had the pumps implanted and were given a priming (2 mg/Kg or 4 mg/Kg) dose of the antagonist. Blood was taken prior to surgery and six hours after the animals were removed from their food supply. On each subsequent day animals had free access to food and water overnight, then their food removed for six hours, and a blood sample taken.
(§2) In addition to taking blood samples for glycerol analysis, each animal was weighed every day for seven days. After seven days the animals were fasted overnight and a glucose tolerance test given The animals were then sacrificed and 1 ml blood sample taken for serum insulin and serum BW1433 determination drug levels. Insulin levels were measured with RIA kit (Diagnostic Products) and BW1433 levels were measured fluorometrically after HPLC separation at Burroughs Wellcome, Research Triangle Park, North Carolina. […] Nonetheless, when glucose tolerance curves were administered on day 7, drug-related differences could still be seen in all animals studied. […] This is illustrated more clearly in FIG. 4 where the area under the glucose tolerance curve is shown as a bar for each of the 6 groups of animals. […] FIG. 5 is a chart of the change in weight of treated and untreated lean and obese animals. […] The effect on weight change in each case was maximal at day 3, the day when the glycerol values peaked. […]

[3] = cited from earlier work
[4] = test system: lean and obese (fatty) Zucker rats; test: Serum insulin after chronic administration of BW1433 (RIA kit); assay type: in vivo
Method: as §1
(§3) In addition to taking blood samples for glycerol analysis, each animal was weighed every day for seven days. After seven days the animals were fasted overnight and a glucose tolerance test given The animals were then sacrificed and 1 ml blood sample taken for serum insulin and serum BW1433 determination drug levels. Insulin levels were measured with RIA kit (Diagnostic Products) and BW1433 levels were measured fluorometrically after HPLC separation at Burroughs Wellcome, Research Triangle Park, North Carolina. […] Nonetheless, when glucose tolerance curves were administered on day 7, drug-related differences could still be seen in all animals studied. […] This is illustrated more clearly in FIG. 4 where the area under the glucose tolerance curve is shown as a bar for each of the 6 groups of animals. […] FIG. 5 is a chart of the change in weight of treated and untreated lean and obese animals. […] The effect on weight change in each case was maximal at day 3, the day when the glycerol values peaked. Based on these remarkable results, the compounds of Formula I can be administered to obese warm-blooded animals as anti-obesity agents, or administered to farm animals to advantageously increase the ratio of muscle mass to fat therein.
The obese animals apparently have lower extracellular fluid volume per Kg body weight.

[5] = test system: lean and obese Zucker rats; test: Glucose tolerance test after seven days of BW1433 administration; assay type: in vivo
Method: FIG. 3: Glucose tolerance test after seven days of BW1433 administration. Animals were fasted overnight before injection of 1.25 g/Kg glucose and samples taken 15, 30, 60 and 120 min for glucose determinations. The conditions are the same as those described in legend to FIG. 2 (Cont=V).
FIG. 4: A bar graph representing the area under the glucose tolerance curves of FIG. 3.
as §1, §2

[6] = test system: lean and obese Zucker rats; test: Daily serum glycerol during chronic administration of BW1433 (Alzet mini osmotic pumps); assay type: in vivo
Method: FIG. 2: Daily serum glycerol levels during chronic administration of BW1433 in lean (L) and obese (F) Zucker rats. In the no drug group (V) n=5, in the D1 group (0.2 mg/Kg/hr) n=5, and in the D2 group (0.4 mg/Kg/hr) n=4.
as §1, §3

Al adenosine receptor [7] = test: Blockade by BW1433 of receptors activated with the agonist N-6 phenylisopropyladenosine (PIA), subcutaneous; assay type: in vivo, rat (Sprague Dawley, lean Zucker, obese Zucker); settings: all three strains of rat
Method: Next, I studied the effect of subcutaneous injections of BW1433 in 18 hour fasted animals. The results, shown in FIG. 1, support my initial postulation, that the Al adenosine receptor may be particularly active in obese animals. […] To distinguish between these possibilities, the agonist N-6 phenylisopropyladenosine (PIA) was injected subcutaneously either alone or in combination with BW1433.

Al adenosine receptor [8] = test: Acute subcutaneous injection of BW1433, serum glycerol (whole body lipolysis); assay type: in vivo, Sprague Dawley rats; lean and obese Zucker rats; settings: Sprague Dawley rats, 18 hour fasted, 60 min after subcutaneous injection, 0-10 mg/Kg
Method: FIG. 1: Serum glycerol levels 60 min after a subcutaneous injection of BW1433 (0-10 mg/Kg) in Sprague Dawley rats (SD) and lean and obese Zucker rats. Each point represents 3-4 animals in the case of SD rats and 3-10 or 4-10 in the case of lean and obese Zuckers, respectively.
My initial studies were carried out following acute subcutaneous injections of the drug into male Sprague Dawley rats and into lean and into obese Zucker rats. Blood samples (100 microliter) were taken from the tail of the rats and measurements made of serum glycerol^6. Glycerol is an end product of lipolysis and thus an excellent indicator of the rate of whole body lipolysis. […] I discovered that in the absence of the Formula I compound tested, serum glycerol levels only differ slightly when comparing lean and obese animals. Since there is 3-4 times more fat in the obese animal this is good evidence for sluggish lipolysis per g of fat in the obese. The obese animals however seem to mobilize the fat at an earlier time after removal of their food supply (Table 1), since after 6 hours of fasting the obese serum glycerol levels are much higher than the lean.
Next, I studied the effect of subcutaneous injections of BW1433 in 18 hour fasted animals. The results, shown in FIG. 1, support my initial postulation, that the Al adenosine receptor may be particularly active in obese animals. […]

For `CCCn1c(=O)c2nc(-c3ccc(/C=C/C(=O)O)cc3)[nH]c2n(CCC)c1=O` [BW1433, (E)-4-(1,2,3,6-tetrahydro-2,6-dioxo-1,3-dipropyl-9H-purin-8-yl)cinnamic acid], the “serum drug level, obese versus lean” value ([1]; obese compared with lean Zucker rats) was “somewhat higher levels of drug than the lean”, the concentration at 168 h ([1]; 0.2 mg/kg/h, Fatty, +BW1433, 0.2 mg/kg (pump, per hour)) was 205 ± 22 ng/mL and the concentration at 168 h ([1]; 0.2 mg/kg/h, Lean, +BW1433, 0.2 mg/kg (pump, per hour)) was 102 ± 20 ng/mL. The concentration at 168 h ([1]; 0.4 mg/kg/h, Fatty, +BW1433, 0.4 mg/kg (pump, per hour)) was 624 ± 80 ng/mL, the concentration at 168 h ([1]; 0.4 mg/kg/h, Lean, +BW1433, 0.4 mg/kg (pump, per hour)) was 366 ± 98 ng/mL and the “growth or weight gain” value ([2]; lean Zucker rats) was “increased growth or weight gain”. The “day of maximal effect on weight change” value ([2]; lean and obese) was 3 days, the “growth or weight gain” value ([2]; obese Zucker rats) was “decreased growth or weight gain” and the “oral administration and absorption” value [3] was “can be administered and absorbed orally”. The serum insulin ([4]; Fatty, +BW1433, 0.2 mg/kg (vehicle 54.06 ± 9.49)) was 52.81 ± 4.82 micro lu/ml, the serum insulin ([4]; Fatty, +BW1433, 0.4 mg/kg (vehicle 54.06 ± 9.49)) was 58.06 ± 6.52 micro lu/ml and the serum insulin ([4]; Lean, +BW1433, 0.2 mg/kg (vehicle 7.92 ± 0.92)) was 11.63 ± 1.62 micro lu/ml. For the same compound, the serum insulin ([4]; Lean, +BW1433, 0.4 mg/kg (vehicle 7.92 ± 0.92)) was 10.67 ± 1.50 micro lu/ml, the glucose tolerance ([5]; day 7, 1.25 g/Kg glucose) was “improved glucose tolerance” and the “area under the glucose tolerance curves” value ([5]; lean and obese (fatty) animals, FIG. 4) was “does reduce the area under these curves”. The “area under the glucose tolerance curve” value ([5]; lean and obese Zucker rats, 1.25 g/Kg glucose intraperitoneal, day 7, dose dependence) was “smaller, the larger the dose”, the “day when the glycerol values peaked” value ([6]; chronic) was 3 days and the “serum levels on day 7 (adaptation to the drug)” value ([6]; day 7, chronic) was “all serum levels were similar on day 7”. For the same compound, the “effect on serum glycerol level” value ([6]; lean Zucker rats, chronic 0.2 or 0.4 mg/Kg/hour) was “did not effect the glycerol level”, the “serum glycerol level, higher dose (0.4 mg/Kg) versus lower dose (0.2 mg/Kg)” value ([6]; obese Zucker rats, chronic) was “higher in the group with the higher dose of drug” and the “serum glycerol level versus controls” value ([6]; obese Zucker rats, chronic 0.2 or 0.4 mg/Kg/hour) was “much higher levels of glycerol than the controls”. The “dose at which receptors could be effectively blocked” value (Al adenosine receptor [7]) was 1 to 2 mg/kg and the “effect on serum glycerol” value (Al adenosine receptor [8]) was “little or no effect”.
